Laboratory results published in patent US20090246292A1, “ANTIMICROBIAL FORMULATIONS COMPRISING A QUINONE AND A COPPER SALT” (priority 2006, published 2009).
Read-outs that look alike come from different tables or passages of the source.

Columns and labels:
P. acnes NCTC 737 [1] = assay: Disc diffusion assay (DDA), also supplemented;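 also: paper disc carrying compound placed on inoculated Wilkins-Chalgren Anaerobe agar pH 6.0, with lipid or NaCl supplement where listed, anaerobic 37 °C for 72 h, inhibition zone diameter read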
P. acnes NCTC 737 [2] = assay: Synergy disc diffusion assay (SDDA), also supplemented
Procedure: The propionibacteria were cultured and maintained on Wilkins-Chalgren Anaerobe Medium (agar and broth) at pH 6.0; all cultures were incubated anaerobically at 37° C. for 72 hours.
(e) Synergy Disc Diffusion Assay (SDDA)
This is a variation on the DDA method, in which two compounds are tested together for their combined antimicrobial activity.
Two test compounds A and B were placed on a single paper disc and the above described DDA procedure repeated.
(f) Supplemented Disc Diffusion Assays
For assays using Propionibacterium spp. strains the supplements used in the examples below were lipid (either Tween™ 80 or triolein, both at 1% v/v) and sodium chloride (100 mM).

P. acnes NCTC 737 [3] = assay: Minimum inhibitory concentration (MIC) assay; format: cell-based, Propionibacterium acnes
Excerpt: (§1) (a) Minimum Inhibitory Concentration (MIC) Assay
(§2) The culture media were as described above.
(§3) The assays included both negative (culture medium with no micro-organisms) and positive (culture medium plus diluting solvent plus micro-organism) controls.

S. aureus ATCC 29213 [4] = assay: Disc diffusion assay (DDA), also supplemented
S. aureus ATCC 29213 [5] = assay: Synergy disc diffusion assay (SDDA), also supplemented;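 also: disc diffusion on Mueller-Hinton agar at pH 7.2, aerobic incubation at 37 °C lasting 19-20 h, two compounds assessed jointly for combined antimicrobial effect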
S. aureus ATCC 29213 [6] = assay: Minimum bactericidal concentration (MBC) assay; format: cell-based, Staphylococcus aureus
Procedure: (§4) (b) Minimum Bactericidal Concentration (MBC) Assay
(§5) Following incubation they were examined visually for bacterial growth.

S. aureus ATCC 29213 [7] = assay: Minimum inhibitory concentration (MIC) assay; format: cell-based, Staphylococcus aureus
Excerpt: as §1, §2, §3

P. acnes NCTC 737 [8] = assay: Minimum bactericidal concentration (MBC) assay; format: cell-based, Propionibacterium acnes
Procedure: as §4, §5

[9] = Example 8, single compound, salt and 1% (v/v) triolein
[10] = quinone + CSL, salt and lipid (1% (v/v) triolein)
[11] = quinone + CSPH, salt and lipid (1% (v/v) triolein)
[12] = quinone + CSL, salt and serum supplements
[13] = quinone + CSPH, salt and serum supplements

| Compound | DDA (P. acnes NCTC 737 [1]) | MIC (P. acnes NCTC 737 [3]) [mg/L] | MIC/MBC ratio (P. acnes NCTC 737 [3]) | MBC (S. aureus ATCC 29213 [6]) [mg/L] | MIC (S. aureus ATCC 29213 [7]) | MBC (P. acnes NCTC 737 [8]) [mg/L] | DDA + salt & lipid (P. acnes NCTC 737 [1]; [9]) | SDDA with CSL (P. acnes NCTC 737 [2]) | SDDA with CSPH (P. acnes NCTC 737 [2]) | SL SDDA area increase (P. acnes NCTC 737 [2]; [10]) [%] | SL SDDA increase (P. acnes NCTC 737 [2]; [10]) [mm] | SL SDDA with CSL (P. acnes NCTC 737 [2]; [10]) | SDDA area increase (P. acnes NCTC 737 [2]; quinone + CSL, unsupplemented) [%] | SDDA increase (P. acnes NCTC 737 [2]; quinone + CSL, unsupplemented) [mm] | SL SDDA area increase (P. acnes NCTC 737 [2]; [11]) [%] | SL SDDA increase (P. acnes NCTC 737 [2]; [11]) [mm] | SL SDDA with CSPH (P. acnes NCTC 737 [2]; [11]) | SDDA area increase (P. acnes NCTC 737 [2]; quinone + CSPH, unsupplemented) [%] | SDDA increase (P. acnes NCTC 737 [2]; quinone + CSPH, unsupplemented) [mm] | other results |
| --- | --- | --- | --- | --- | --- | --- | --- | --- | --- | --- | --- | --- | --- | --- | --- | --- | --- | --- | --- | --- |
| O.O=C([O-])C(O)C(O)C(=O)[O-].[Cu+2] (stereo not shown) [Copper (II) tartrate hydrate] | 49.64 mm | 15.6 | 0.25 | >250 | >250 µg/mL | 62.5 |  |  |  |  |  |  |  |  |  |  |  |  |  | DDA + lipid (P. acnes NCTC 737 [1]): 38.35 mm; DDA + salt (P. acnes NCTC 737 [1]): 48.25 mm; DDA + salt & lipid (P. acnes NCTC 737 [1]): 47.56 mm; SDDA area increase (P. acnes NCTC 737 [2]): 20.27%; SDDA increase (P. acnes NCTC 737 [2]): 4.8 mm; SDDA with TBHQ (P. acnes NCTC 737 [2]): 54.44 mm; SL SDDA area increase (P. acnes NCTC 737 [2]): 24.11%; SL SDDA increase (P. acnes NCTC 737 [2]): 5.42 mm; SL SDDA with TBHQ (P. acnes NCTC 737 [2]): 52.98 mm; DDA (S. aureus ATCC 29213 [4]): 0 mm; DDA + lipid (S. aureus ATCC 29213 [4]): 0 mm; DDA + salt (S. aureus ATCC 29213 [4]): 0 mm; DDA + salt & serum (S. aureus ATCC 29213 [4]): 0 mm; SDDA area increase (S. aureus ATCC 29213 [5]): −88.71%; SDDA increase (S. aureus ATCC 29213 [5]): −26.84 mm; SDDA with TBHQ (S. aureus ATCC 29213 [5]): 13.58 mm; SS SDDA area increase (S. aureus ATCC 29213 [5]): −94.19%; SS SDDA increase (S. aureus ATCC 29213 [5]): −33.15 mm; SS SDDA with TBHQ (S. aureus ATCC 29213 [5]): 10.53 mm |
| O=S(=O)([O-])[O-].[Cu+2] [Copper (II) sulphate, copper (II) sulphate] |  | 15.6 | 0.5 | 1000 | 1000 μml | 31.25 |  |  |  |  |  |  |  |  |  |  |  |  |  | (S)DDA (P. acnes NCTC 737 [1]): 51.73 (±1.48) mm; SL (S)DDA (P. acnes NCTC 737 [1]): 51.10 (±3.17) mm; (S)DDA (S. aureus ATCC 29213 [4]): 0 mm; SS (S)DDA (S. aureus ATCC 29213 [4]): 0 mm; activity of copper salt alone (in words) (S. aureus ATCC 29213 [4]): inactive; MIC/MBC ratio (S. aureus ATCC 29213 [7]): 1 |
| CC1=CC(=O)C=CC1=O [2-methyl-p-benzoquinone] | 33.74 (±1.52) mm |  |  |  |  |  | 35.18 (±1.24) mm | 49.64 (±0.99) mm | 49.54 (±0.81) mm | 37.19 | 7.29 | 49.85 (±3.20) mm | 47.88 | 8.82 | 18.59 | 4.41 | 53.95 (±1.16) mm | 38.80 | 7.49 |  |
| CC(C)(C)C1=CC(=O)C=CC1=O |  |  |  |  |  |  | 45.13 (±1.45) mm |  |  | 56.24 | 11.28 | 56.41 (±2.58) mm | 63.59 | 11.39 | 10.60 | 2.56 | 52.10 (±2.56) mm | 61.51 | 11.39 |  |
| O=C1C=CC(=O)C(Cl)=C1 [2-chloro-1,4-benzoquinone] | 22.15 (±0.53) mm |  |  |  |  |  | 24.31 (±0.81) mm | 45.85 (±0.31) mm | 47.28 (±1.39) mm | 31.58 | 6.26 | 48.82 (±0.47) mm | 26.16 | 5.03 | 3.75 | 0.92 | 50.46 (±2.15) mm | 26.42 | 5.23 |  |
| CCc1cc(O)ccc1O [2-ethyl-p-hydroquinone] |  |  |  |  |  |  | 33.74 (±1.69) mm |  |  | 31.58 | 6.26 | 48.82 (±0.47) mm | 33.02 | 6.26 | 11.07 | 2.67 | 52.21 (±0.18) mm | 44.00 | 8.41 | DDA + salt & serum (S. aureus ATCC 29213 [4]; Example 9, single compound, salt and serum): 25.26 (±1.29) mm; SS SDDA area increase (S. aureus ATCC 29213 [5]; [12]): 41.05%; SS SDDA increase (S. aureus ATCC 29213 [5]; [12]): 4.74 mm; SS SDDA with CSL (S. aureus ATCC 29213 [5]; [12]): 30.00 (±2.47) mm; SDDA area increase (S. aureus ATCC 29213 [5]; quinone + CSL, unsupplemented): 151.18%; SDDA increase (S. aureus ATCC 29213 [5]; quinone + CSL, unsupplemented): 14.23 mm; SS SDDA area increase (S. aureus ATCC 29213 [5]; [13]): 68.40%; SS SDDA increase (S. aureus ATCC 29213 [5]; [13]): 7.52 mm; SS SDDA with CSPH (S. aureus ATCC 29213 [5]; [13]): 32.78 (±0.31) mm; SDDA area increase (S. aureus ATCC 29213 [5]; quinone + CSPH, unsupplemented): 157.87%; SDDA increase (S. aureus ATCC 29213 [5]; quinone + CSPH, unsupplemented): 14.74 mm |
